Patent US9833423B2 (KOREA RESEARCH INSTITUTE OF CHEMICAL TECHNOLOGY, priority 2011, dated 2017)
In brackets after ≈: the same amount, converted by molar mass. Read-outs that look alike come from different tables or passages of the source.

Tests used:
Rhino 15 = assay: Multicycle CPE reduction assay; assay type: cell-based, rhinovirus 15; conditions: Enterovirus; 37° C. in HeLa cells
Procedure: (§1) The test compounds were evaluated for anti-picornavirus activity by a multicycle cytopathic effect (CPE) reduction assay. The antiviral activity was initially determined using an MTS [3-(4,5-dimethylthiazol-2-yl)-5-(3-carboxymethoxyphenyl)-2-(4-sulfophenyl)-2H-tetrazolium]-based CPE reduction assay.
(§2) In this regard, cells grown to confluence in 96-well plates were infected with 100 50% cell culture infective doses (CCID50) of virus. After an adsorption period of 2 hrs at 37° C., virus was removed and serial dilutions of the compounds were added. […] After removal of the medium, 90 μl of a culture medium and 10 μl of MTS-phenazine methosulfate (Promega, Leiden, The Netherlands) were added to each well. After an incubation period of 2 hrs at 37° C., the optical density (OD) of each well was read at 498 nm in a microplate reader.
(§3) CPE values for evaluating antiviral activity were calculated using the following Mathmatic Formula 3: […]
(§4) The 50% effective concentration (EC50) and the 50 cytotoxic concentration (CC50) were defined as the concentrations of compound that offered 50% protection against virus-induced CPE and that killed cells by 50%, respectively, and were calculated using logarithmic interpolation.

Rhino 89 = assay: Multicycle CPE reduction assay; assay type: cell-based, rhinovirus 89; conditions: Enterovirus; 37° C. in HeLa cells
Procedure: as §1, §2, §3, §4

Coxsackie-virus B1 = assay: Cytopathic effect (CPE) inhibition assay; assay type: cell-based, Coxsackievirus B1; conditions: Enterovirus B, HeLa37, 48 h; Table 3; HeLa, 37° C., 2 days; read-out: EC50 Coxsackie-virus B1
Coxsackie B3 = assay: Multicycle CPE reduction assay; assay type: cell-based, Coxsackievirus B3; conditions: Enterovirus B, 37° C. in Vero cells
Procedure: as §1, §2, §3, §4

Rhino 70 = assay: Multicycle CPE reduction assay; assay type: cell-based, rhinovirus 70
Procedure: as §1, §2, §3, §4

Rhino 85 = assay: Multicycle CPE reduction assay; assay type: cell-based, rhinovirus 85; conditions: Enterovirus; 37° C. in HeLa cells
Procedure: as §1, §2, §3, §4

Rhino 42 = assay: Multicycle CPE reduction assay; assay type: cell-based, rhinovirus 42; conditions: Enterovirus; 37° C. in HeLa cells
Procedure: as §1, §2, §3, §4

Coxsackie-virus B3 = assay: Cytopathic effect (CPE) inhibition assay; assay type: cell-based, Coxsackievirus B3; conditions: Enterovirus B, HeLa37, 48 h; Table 3; HeLa, 37° C., 2 days; read-out: EC50 Coxsackie-virus B3
Polio-virus 3 = assay: microbe, parasite or virus in culture; assay type: cell-based, Poliovirus 3; conditions: Enterovirus C, HeLa37, 48 h, read-out: EC50 Polio-virus 3
Rhino 86 = assay: Multicycle CPE reduction assay; assay type: cell-based, rhinovirus 86; conditions: Enterovirus; 37° C. in HeLa cells
Procedure: as §1, §2, §3, §4

Rhino 39 = assay: Multicycle CPE reduction assay; assay type: cell-based, rhinovirus 39; conditions: Enterovirus; 37° C. in HeLa cells
Procedure: as §1, §2, §3, §4

Coxsackie A21 = assay: Multicycle CPE reduction assay; assay type: cell-based, Coxsackievirus A21; conditions: Enterovirus C, A21, MRC5, read-out: Coxsackie A21 EC50
[1] = test system: coxsackieviruses B3, A16, A9, and A21; assay: Multicycle CPE reduction assay, text summary; assay type: cell-based; conditions: Table 5; read-out: EC50 against coxsackieviruses B3, A16, A9, and A21
Procedure: as §1, §2, §3, §4

Rhino 45 = assay: Multicycle CPE reduction assay; assay type: cell-based, rhinovirus 45; conditions: 37° C. in HeLa cells
Procedure: as §1, §2, §3, §4

Polio 3 = assay: microbe, parasite or virus in culture; assay type: cell-based, poliovirus 3; conditions: Enterovirus C, BGM, read-out: Polio 3 EC50
Echo 9 = assay: Multicycle CPE reduction assay; assay type: cell-based, echovirus 9; conditions: Enterovirus B, MRC5; 37° C. in MRC-5 cells
Procedure: as §1, §2, §3, §4

Rhino 14 = assay: Multicycle CPE reduction assay; assay type: cell-based, rhinovirus 14; conditions: Enterovirus; 37° C. in HeLa cells
Procedure: as §1, §2, §3, §4

Echo 11 = assay: Multicycle CPE reduction assay; assay type: cell-based, echovirus 11; conditions: Enterovirus B; 37° C. in BGM cells
Procedure: as §1, §2, §3, §4

Rhino 63 = assay: Multicycle CPE reduction assay; assay type: cell-based, rhinovirus 63; conditions: Enterovirus; 37° C. in HeLa cells
Procedure: as §1, §2, §3, §4

Rhino 29 = assay: Multicycle CPE reduction assay; assay type: cell-based, rhinovirus 29; conditions: Enterovirus; 37° C. in HeLa cells
Procedure: as §1, §2, §3, §4

[2] = Cytotoxicity (CC50), MTS-based multicycle CPE reduction assay, Experimental Example 2; assay type: cell-based; conditions: Table 5
Procedure: as §1, §2
(§5) CPE values for evaluating cytotoxicity were calculated using the following Mathmatic Formula 4: […]
as §4

uninfected cell cultures = assay: as above; assay type: cell-based; conditions: Table 5, listed as Ex. 19
Procedure: as §1, §2, §5, §4

Coxsackie-virus A24 (HG) = assay: Cytopathic effect (CPE) inhibition assay; assay type: cell-based, Coxsackievirus A24; conditions: Enterovirus C, MRC5, 48 h; Table 3; MRC-5, 37° C., 2 days
Entero-virus 70 = assay: Cytopathic effect (CPE) inhibition assay; assay type: cell-based, Enterovirus 70; conditions: Enterovirus D, MRC5, 48 h; Table 3; MRC-5, 37° C., 2 days
Rhino 72 = assay: Multicycle CPE reduction assay; assay type: cell-based, rhinovirus 72; conditions: Enterovirus; 37° C. in HeLa cells
Procedure: as §1, §2, §3, §4

Rhino 41 = assay: Multicycle CPE reduction assay; assay type: cell-based, rhinovirus 41; conditions: Enterovirus; 37° C. in HeLa cells
Procedure: as §1, §2, §3, §4

Coxsackie A16 = assay: Multicycle CPE reduction assay; assay type: cell-based, Coxsackievirus A16; conditions: Enterovirus A, A16, MRC5; 37° C. in MRC-5 cells
Procedure: as §1, §2, §3, §4

in vitro = conditions: human, CC50
Entero 71 = assay: Multicycle CPE reduction assay; assay type: cell-based, enterovirus 71; conditions: Enterovirus A; 37° C. in RD cells
Procedure: as §1, §2, §3, §4

Polio 1 = assay: microbe, parasite or virus in culture; assay type: cell-based, poliovirus 1; conditions: Enterovirus C, BGM, read-out: Polio 1 EC50
Rhino 2 = assay: Multicycle CPE reduction assay; assay type: cell-based, rhinovirus 2; conditions: Enterovirus; 37° C. in HeLa cells
Procedure: as §1, §2, §3, §4

Rhino 9 = assay: Multicycle CPE reduction assay; assay type: cell-based, rhinovirus 9; conditions: Enterovirus; 37° C. in HeLa cells
Procedure: as §1, §2, §3, §4

[3] = test system: echovirus 9 and echovirus 11; assay: Multicycle CPE reduction assay, text summary; assay type: cell-based; conditions: Enterovirus B; Table 5; read-out: EC50 against echovirus 9 and echovirus 11
Coxsackie-virus A24 (DN) = assay: Cytopathic effect (CPE) inhibition assay; assay type: cell-based, Coxsackievirus A24; conditions: Enterovirus C, MRC5, 48 h; Table 3; MRC-5, 37° C., 2 days
polioviruses 1, 2 and 3 = assay: organism not typed; assay type: cell-based; conditions: read-out: EC50 against polioviruses 1, 2 and 3
Coxsackie A9 = assay: Multicycle CPE reduction assay; assay type: cell-based, Coxsackievirus A9; conditions: Enterovirus B, 37° C. in BGM cells

| Structure (SMILES) | EC50 (Rhino 15) [nM] | EC50 (Rhino 89) [nM] | EC50 (Coxsackie-virus B1) [µg/mL] | EC50 (Coxsackie B3) [nM] | EC50 (Rhino 85) [nM] | EC50 (Coxsackie-virus B3) [µg/mL] | EC50 (Polio-virus 3) [µg/mL] | EC50 (Rhino 39) [nM] | EC50 (Rhino 45; Enterovirus, HeLa) [nM] | EC50 (Polio 3) [nM] | EC50 (Echo 9) [nM] | EC50 (Rhino 14) [nM] | EC50 (Echo 11) [nM] | EC50 (Rhino 63) [nM] | melting point [°C] | EC50 (Rhino 29) [nM] | CC50 at 3 days [2] [nM] | EC50 (Coxsackie-virus A24 (HG)) [µg/mL] | EC50 (Rhino 41) [nM] | CC50 (in vitro) [µg/mL] | also measured |
| --- | --- | --- | --- | --- | --- | --- | --- | --- | --- | --- | --- | --- | --- | --- | --- | --- | --- | --- | --- | --- | --- |
| CC(=O)Oc1cc(C(C)C)ccc1C1(OC(C)=O)C(=O)c2ccccc2C1=O [Example 19, Acetic acid 2-(2-acetoxy-4-isopropyl-phenyl)-1,3-dioxo-indan-2-yl ester] | > 50000 | > 50000 | < 0.01 | < 10 | > 50000 | < 0.01 | < 1 | > 50000 | 4600 ± 8.3 | < 1000 | 17 ± 6.7 | 450 ± 410 | 17 ± 7.8 | > 50000 | 136 to 137 | > 50000 | ≥ 100000 | < 1 | > 50000 | 17.7 (≈ 46.5 µM) | EC50 (Rhino 70; Enterovirus, HeLa, read-out: Rhino 70 EC50, 37° C. in HeLa cells): 2000 ± 120 nM; EC50 (Rhino 42): > 50000 nM; EC50 (Rhino 86): 26000 ± 18000 nM; EC50 (Coxsackie A21): 670 ± 130 nM; EC50 [1]: 10 nM; CC50 (uninfected cell cultures): > 100000 nM; EC50 (Entero-virus 70): < 0.01 µg/mL; EC50 (Rhino 72): 4600 ± 92 nM; EC50 (Coxsackie A16): 64 ± 10 nM; EC50 (Entero 71): 100 ± 1.8 nM; EC50 (Polio 1): 790 ± 360 nM; EC50 (Rhino 2): > 50000 nM; EC50 (Rhino 9): > 50000 nM |
| CC(=O)Oc1cc(C(C)C)ccc1C1(OC(C)=O)C(=O)c2cccc(N)c2C1=O (stereo not shown) [Example 36, Acetic acid 2-(2-acetoxy-4-isopropyl-phenyl)-4-amino-1,3-dioxo-indan-2-yl ester] | 1500 ± 240 | 490 ± 38 | < 0.01 | < 10 | 7500 ± 1200 | < 0.01 | < 0.01 | 1400 ± 200 | ≤ 78 | < 10 | 11 ± 3.2 | 350 ± 320 | 8.2 ± 1.9 | > 10000 | 148 to 151 | 5500 ± 720 | > 50000 | < 0.01 | 540 ± 3 | 9.42 (≈ 23.8 µM) | EC50 [3]: 8.2 nM; EC50 (Rhino 70; Enterovirus, HeLa, 37° C. in HeLa cells, read-out: Rhino 70 EC50): ≤ 78 nM; EC50 (Rhino 70; read-out: Rhino 70 EC50, 37° C. in HeLa cells, listed as Ex. 36): > 78 nM; EC50 (Coxsackie-virus A24 (DN)): < 0.1 µg/mL; EC50 (Rhino 45; listed as Ex. 36): < 78 nM; EC50 (polioviruses 1, 2 and 3): 10 nM; EC50 (Entero 71): 6.7 nM; EC50 (Polio 1): 220 ± 50 nM; EC50 (Coxsackie A9): 7 ± 0.18 nM; EC50 (Rhino 2): 7800 ± 570 nM; EC50 (Rhino 9): 1200 ± 120 nM |
